{"source": "patent US7531651B2", "about": "“Benzenesulphonate salt of a morpholine urea derivative for use as a CCR-3 antagonist in the treatment of inflammatory conditions” (Glaxo Group Limited, priority 2002, dated 2009)", "key": {"[1]": {"target": "T1, CCR-3 (Homo sapiens, UniProt P51677)", "T1 construct": "expressed in transfected cells", "T1 sequence (P51677 1-355)": "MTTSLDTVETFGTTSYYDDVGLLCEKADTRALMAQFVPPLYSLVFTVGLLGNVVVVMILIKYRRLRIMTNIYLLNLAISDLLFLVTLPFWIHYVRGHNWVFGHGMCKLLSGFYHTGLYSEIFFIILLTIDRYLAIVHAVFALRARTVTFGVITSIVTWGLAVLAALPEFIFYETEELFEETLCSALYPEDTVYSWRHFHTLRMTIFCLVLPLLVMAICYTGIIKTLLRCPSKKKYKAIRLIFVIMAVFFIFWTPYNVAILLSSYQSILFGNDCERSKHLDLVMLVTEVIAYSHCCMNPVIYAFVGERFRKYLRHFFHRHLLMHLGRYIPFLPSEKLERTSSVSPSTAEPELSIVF", "assay": "CCR-3 competition binding SPA ([125I]eotaxin)", "conditions": "membranes from K562 cells stably expressing CCR-3; 20 pM [125I]eotaxin; read-out: pIC50 (inhibition of [125I]eotaxin binding) (converted)", "experimental": "A CCR-3 competition binding SPA (scintillation proximity assay) was used to assess the affinity of novel compounds for CCR-3. Membranes prepared from K562 cells stably expressing CCR-3 (2.5 μg/well) were mixed with 0.25 mg/well wheat-germ agglutinin SPA beads (Amersham) and incubated in binding buffer (HEPES 50 mM, CaCl2 1 mM, MgCl2 5 mM, 0.5% BSA) at 4° C. for 1.5 hr. Following incubation, 20 pM of [^125I] eotaxin (Amersham) and increasing concentrations of compound (1 pM to 30 μM) were added and incubated in a 96 well plate for 2 hr at 22° C. then counted on a Microbeta plate counter. The total assay volume was 100 μl. Competition binding data were analysed by fitting the data with a four parameter logistic equation. Data are presented as the mean pIC50 values (negative logarithm of the concentration of compound which inhibits [^125I]eotaxin binding by 50%) from at least two experiments."}, "[2]": {"assay": "Solid form storage stability tests (temperature/humidity/light)", "text": "The stability of the compound of the invention may be determined using conventional quantitative analytical methods: For example the stability of the compound in the solid form may be determined by using accelerated stability tests such as differential scanning calorimetry (DSC), thermogravimetric analysis (TGA) and isothermal testing at elevated temperatures including conventional storage tests wherein the test compound is stored under controlled conditions of temperature and humidity over known periods of time. Quantitative analysis of the test compounds, against appropriate reference standards before, during and after the storage period allows the stability of the test compound to be determined."}, "[3]": {"assay": "Hygroscopicity", "format": "physicochemical"}, "[4]": {"assay": "Solubility in water versus free base"}, "[5]": {"target": "eosinophils", "assay": "Eosinophil chemotaxis assay (eotaxin-induced)", "format": "cell-based", "conditions": "human peripheral blood eosinophils; agonist eotaxin at EC80", "method": "(b) Eosinophil Chemotaxis Assay.\nCompounds were evaluated for their inhibitory effect on eosinophil chemotaxis. Eosinophils were purified from human peripheral blood by standard CD16 cell depletion using a Miltenyi cell separation column and a magnetic Super Macs magnet as previously described (Motegi & Kita, 1998; J. Immunology. 161:4340-6). Cells were re-suspended in RPMI 1640/10% FCS solution and incubated with calcein-AM (Molecular Probes) at 37° C. for 30 mins. Following incubation, the eosinophils were centrifuged at 400 g for 5 min and re-suspended in RPMI/FCS at 2.2 million/ml. Cells were then incubated in the presence of increasing concentration of compounds (1 μM to 30 μM) at 37° C. for 30 mins. For control responses cells were incubated with RPMI/FCS only. The agonist eotaxin (either a concentration response curve or for the functional inhibition curves an EC80 concentration) was added to the lower chamber of a 96 well chemotaxis plate (5 μm filter: Receptor Technologies). […] Cells remaining on top of the chemotaxis filter were removed and the number of eosinophils which had migrated were quantified by reading the plate on a fluorescent plate reader. Inhibition curves for the effect of compounds on eosinophil chemotaxis were analysed by fitting the data with a four parameter logistic equation. […]"}, "[6]": {"assay": "Stability in aqueous solution (impurity profiles)", "conditions": "presence and absence of light, 8 days, pH range 2-10", "text": "Thus a convenient method for determining the stability of the compounds of the invention in aqueous solution involves determining the impurity profiles of an aqueous solution of the test compound at known conditions of temperature and over known periods of time."}}}
{"compound": "NC(=O)c1ccc(CNC(=O)NC[C@H]2CN(Cc3ccc(Cl)c(Cl)c3)CCO2)cc1.O.O.O=S(=O)(O)c1ccccc1", "note": "[compound of the invention, 4-({[({[(2S)-4-(3,4-dichlorobenzyl)morpholin-2-yl]methyl}amino)carbonyl]amino}methyl)benzamide benzenesulfonate dihydrate]", "values": [{"measurement": "IC50", "setting": "[1]", "result": "< 10", "unit": "µM"}, {"measurement": "degradation on storage (solid form)", "setting": "[2]; 50° C./ambient conditions, 25 days", "result": "no significant degradation"}, {"measurement": "degradation on storage (solid form)", "setting": "[2]; light cabinet, ambient conditions, 14 days", "result": "no significant degradation"}, {"measurement": "hygroscopicity", "setting": "[3]", "result": "non-hygroscopic"}, {"measurement": "solubility in water compared with the free base", "setting": "[4]", "result": "more soluble in water than the corresponding free base"}, {"measurement": "fpKi (functional pKi)", "setting": "[5]", "result": "greater than 5"}, {"measurement": "aqueous stability", "setting": "[6]", "result": "good aqueous stability"}]}
